Data set [1] concerns Burkholderia thailandensis (Bt). The data set is classed as cell-based.
Data set [2] has as its system B. pseudomallei. The data set is classed as cell-based, Burkholderia pseudomallei.
Data set [3] concerns NO. The data set is classed as cell-based, mice.
Data set [4] has as its system NO. The data set is classed as cell-based, mice. This is another data set of the same source.
Data set [5] relates to iNOS. The data set is classed as cell-based, mice. Particulars: 4 hours.
The test system of data set [6] is Arg2. The data set is classed as cell-based, mice.
In data set [7] the test system is CD4+ T-cells. In words: IFN-γ and IL-2 production by stimulated CD4+ T-cells. The data set is classed as cell-based, mice. The following applies: low dose (100 pg/ml) or high dose (10,000 pg/ml) PGE-2; Day 6; vs stimulated.
The subject of data set [8] is Arg2. In words: Arg2 in lung and liver of Bt-infected mice (Western blot, immunohistochemical staining). The data set is classed as in vivo. A general note: A western blot detects proteins with antibodies after separation by electrophoresis.
Data set [9] deals with arginase. In words: Quantitative assay for urea in lungs of Bt-infected mice (indirect measurement of Arg activity). The data set is classed as in vivo. The following applies: 80 mg/kg Celecoxib vs mock-treated Bt-infected mice.
Data set [10] relates to IL-1α, IL-6 and KC. In words: IL-1α, IL-6 and KC in the lungs of Bt-infected mice. The data set is classed as in vivo. The following applies: 80 mg/kg Celecoxib vs mock; 48 hours post-infection with Bt.
Data set [11] relates to BALB/c mice infected with B. thailandensis. Particulars: mouse, in vivo.
Data set [12] concerns B. thailandensis. Also on record: species or system Burkholderia thailandensis. The following applies: in vivo.
Data set [13] relates to PGE-2. Also on record: species or system mice. Particulars: mouse, in vivo.
Data set [14] relates to PGE-2. The data set is classed as cell-based, murine.
For data set [15], the system named is iNOS. The data set is classed as cell-based.
Data set [16] relates to Burkholderia pseudomallei strain 1026b. The data set is classed as in vivo.
Data set [17] concerns Arg2. Details: species or system mice. Particulars: mouse, in vivo, 15 mg/kg.
Data set [18] deals with PGE-2. The data set is classed as in vivo, mice. The following applies: n=2.
For data set [19], the system named is B. pseudomallei. The data set is classed as in vivo, Burkholderia pseudomallei. Particulars: n=2.
The conditions of data set [20]: daily maximum dose of 15 mg/kg in mice, cited from earlier work.

These results are taken from patent US9889145B2, “Methods to treat infections” (priority 2013, dated 2018).

“Also recorded” adds a separate entry of the source. Bounds are passed on as bounds.

As to `N=C(NO)NCC[C@H](N)C(=O)O` [nor-NOHA, nor-N^ω-hydroxy-L-arginine], the Bt intracellular survival result in data set [1] is “decrease”. Also, the Bps intracellular survival entry in [2] is listed as “decrease in B. pseudomallei intracellular survival”. For the same compound, in [3], the NO levels result is reported as “increase in NO levels”. Moreover, in [4], the “NO (nitrite) levels” value is “increase in NO levels; also recorded: increase in nitrite levels”.

As to `CCCCC[C@H](O)/C=C/[C@H]1[C@H](O)CC(=O)[C@@H]1C/C=C\CCCC(=O)O` [PGE-2], in [3], the “NO levels after adding PGE-2” value is on record as “reduced NO levels”. Further, in data set [4], the “NO (nitrite) levels after adding PGE-2” value is recorded as “reduced NO levels; also recorded: reduced nitrite levels”. Also, the “iNOS mRNA expression” value in data set [5] was “no differences in iNOS mRNA expression; also recorded: did not observe any apparent change in iNOS mRNA expression”. For the same compound, the “increase in Arg2 expression” value in [6] amounted to 376 fold. Further, in [7], the “IFN-gamma production by stimulated CD4+ T-cells” value is listed as “reduces” and the “IL-2 production by stimulated CD4+ T-cells” value was “reduces”.

Consider `Cc1ccc(-c2cc(C(F)(F)F)nn2-c2ccc(S(N)(=O)=O)cc2)cc1` [Celecoxib, 4-[5-(4-methylphenyl)-3-(trifluoromethyl)pyrazol-1-yl]benzenesulfonamide], for which the “number of Arg2 positively-stained cells in lungs (immunohistochemical staining)” value in [8] (80 mg/kg Celecoxib vs mock-treated Bt-infected mice) is “reduction in the number of Arg2 positively-stained cells”. Further, in data set [8] (80 mg/kg Celecoxib vs mock-treated mice, 48 hours after pulmonary Bt infection), the “Arg2 in the lungs (Western blot)” value was “reduction in Arg2 in the lungs”. Also, the “urea levels in the lungs” value in data set [9] is “lower”. In data set [10], the “IL-1α in the lungs” value is listed as “reduced”, the “IL-6 in the lungs” value is given as “reduced” and the “KC in the lungs” value is reported as “reduced”. For the same compound, the “lung inflammation (histological examination)” value in [11] is given as “reduced”. Further, in [12], the “bacterial burden in liver” value was “reduction in bacterial burdens”, the “bacterial burden in lung” value is “reduction in bacterial burdens” and the “bacterial burden in spleen” value is “reduction in bacterial burdens”. The “PGE-2 in the lungs (ELISA)” value in data set [13] is listed as “PGE-2 reduction”.

For the compound `CS(=O)(=O)Nc1ccc([N+](=O)[O-])cc1OC1CCCCC1` [NS398, N-[2-(cyclohexyloxy)-4-nitrophenyl]-methanesulfonamide], the “survival of intracellular Bt” value in data set [1] is listed as “decrease in survival of intracellular bacteria”. In data set [14], the “PGE-2 levels in supernatants” value was “reduced”. Besides, the Bps intracellular survival result in data set [2] is reported as “reduction in Bps survival; also recorded: enhanced intracellular killing of B. pseudomallei”. Besides, in [3], the NO production result was “higher production of NO”. Further, the “NO production (nitrite)” value in data set [4] is recorded as “higher production of NO; also recorded: increase in nitrite”. The iNOS expression result in [15] was “two-fold increase in iNOS expression”. Besides, the “iNOS mRNA expression” value in [5] was “no differences in iNOS mRNA expression; also recorded: did not observe any apparent change in iNOS mRNA expression”. Besides, the Arg2 expression result in data set [6] is “reduction in Arg2 expression”. Further, in data set [16] (in vivo), the “bacteria recovered from the lungs at the study endpoint” value is listed as “No bacteria were recovered”; the “bacteria recovered from the lungs of the two animals euthanized on day 5 and day 7 (hind leg paralysis)” value is given as “No bacteria were recovered”; the “colonization of spleen and liver” value is listed as 20-100 cfu; the “first signs of illness” value is no less than 5. Moreover, in data set [16] (in vivo), the “lung bacteria of the one exceptional animal at the study endpoint” value was 104 cfu and the “weight loss throughout the study” value is given as “no evidence of weight loss”. Besides, in data set [16] (n=8), the “survival / recovery over 10 days” value is “appeared to have recovered from the infection; also recorded: protection against lethal pulmonary melioidosis”. In addition, the “Arg2 expression in lungs (Western blot, densitometry)” value in data set [17] is on record as “decreases”. Moreover, in [18], the “PGE-2 concentration in lung tissue” value is “reduce PGE-2 concentration in lung tissue” and the “PGE-2 concentration in stomach tissue” value was “reduce PGE-2 concentration in stomach tissue”. In [19], the “growth of B. pseudomallei in lung tissue (CFU/mg)” value was “suppresses the growth of B. pseudomallei in lung tissue” and the “growth of B. pseudomallei in stomach tissue (CFU/mg)” value is given as “suppresses the growth of B. pseudomallei in stomach tissue”. In [20] (previously documented pharmacological efficacy), the “lung PGE-2” value is “reducing lung PGE-2”. Further, the associated toxicity entry in data set [20] (previously documented) is “without any associated toxicity”.
